{"source": "patent EP4714938A1", "about": "“HDAC1/2 SELECTIVE INHIBITOR AND USE THEREOF” (Wigen Biomedicine Technology (Shanghai) Co., Ltd., priority 2023, dated 2024)", "key": {"[1]": {"biological_target": "HDAC1 (Homo sapiens, UniProt Q13547)", "sequence (Q13547 whole entry, species assumed)": "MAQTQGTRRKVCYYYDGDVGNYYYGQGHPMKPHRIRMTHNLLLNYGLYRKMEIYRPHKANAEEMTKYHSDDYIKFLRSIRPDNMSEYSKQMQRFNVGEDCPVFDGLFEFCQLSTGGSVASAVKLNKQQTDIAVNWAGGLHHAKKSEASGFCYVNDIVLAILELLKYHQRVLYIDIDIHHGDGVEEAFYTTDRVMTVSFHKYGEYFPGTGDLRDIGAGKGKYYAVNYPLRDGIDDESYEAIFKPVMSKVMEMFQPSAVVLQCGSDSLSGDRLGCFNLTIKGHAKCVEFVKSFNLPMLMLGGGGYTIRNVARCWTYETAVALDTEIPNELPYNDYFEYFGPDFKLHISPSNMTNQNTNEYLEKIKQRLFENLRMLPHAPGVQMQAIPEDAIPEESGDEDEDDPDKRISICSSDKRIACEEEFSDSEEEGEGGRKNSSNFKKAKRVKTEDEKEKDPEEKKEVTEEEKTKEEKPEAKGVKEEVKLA", "experiment": "HDAC enzyme inhibitory activity, FRET method", "type": "biochemical", "quoted_text": "(§1) The compounds of the present disclosure were assayed for enzyme inhibitory activity against various subtypes of HDAC enzymes by the FRET method. The various subtypes of HDAC enzymes were obtained either through purification or direct purchase of assay kits.\n(§2) The specific method was as follows: The enzyme was added to a 384-well plate, and a reaction buffer was added to the control well. Serially diluted DMSO sample solutions were added to the reaction wells, and the plate was incubated at room temperature for 15 min. Then a chromogenic agent was added to stop the reaction, and fluorescence was generated. The fluorescence intensity was measured using an EnVision multi-label microplate reader (excitation: 355 nm, emission: 460 nm). The endpoint value was read after the color development reached stability. The inhibition IC50 of the compounds was calculated using GraphPad Prism4 software relative to DMSO."}, "[2]": {"experiment": "Pharmacokinetic experiment in mice", "type": "in vivo, CD-1 female mice", "conditions": "mouse, plasma", "protocol": "CD-1 female mice aged 7 to 10 weeks were intravenously administered and orally administered at doses of 1 mg/kg and 10 mg/kg, respectively. The mice were fasted for at least 12 h before the administration and given food 4 h after the administration, and they were given ad libitum access to water during the experiment.\nOn the day of the experiment, animals in the intravenous group were given the corresponding compound by single injection via the tail vein at an administration volume of 10 mL/kg; and animals in the oral group were given the corresponding compound by single intragastric injection at an administration volume of 10 mL/kg. The animals were weighed before administration, and the administration volume was calculated according to the body weight. The sample collection time points were 0.083 h, 0.167 h, 0.5 h, 1 h, 2 h, 4 h, 8 h, and 24 h.\nAbout 200 µL of whole blood was collected through the orbital venous plexus at each time point and used to prepare plasma for concentration determination by high-performance liquid chromatography-tandem mass spectrometry (LC-MS/MS). The plasma concentrations were processed using a non-compartmental model of Winnolin pharmacokinetic software, and the pharmacokinetic parameters were calculated using a linear-log trapezoidal method. Table 9. Results of in vivo pharmacokinetic evaluation of compounds of the present disclosure"}, "[3]": {"biological_target": "T1, HDAC7 (Homo sapiens, UniProt Q8WUI4)", "T1 sequence (Q8WUI4 1-952)": "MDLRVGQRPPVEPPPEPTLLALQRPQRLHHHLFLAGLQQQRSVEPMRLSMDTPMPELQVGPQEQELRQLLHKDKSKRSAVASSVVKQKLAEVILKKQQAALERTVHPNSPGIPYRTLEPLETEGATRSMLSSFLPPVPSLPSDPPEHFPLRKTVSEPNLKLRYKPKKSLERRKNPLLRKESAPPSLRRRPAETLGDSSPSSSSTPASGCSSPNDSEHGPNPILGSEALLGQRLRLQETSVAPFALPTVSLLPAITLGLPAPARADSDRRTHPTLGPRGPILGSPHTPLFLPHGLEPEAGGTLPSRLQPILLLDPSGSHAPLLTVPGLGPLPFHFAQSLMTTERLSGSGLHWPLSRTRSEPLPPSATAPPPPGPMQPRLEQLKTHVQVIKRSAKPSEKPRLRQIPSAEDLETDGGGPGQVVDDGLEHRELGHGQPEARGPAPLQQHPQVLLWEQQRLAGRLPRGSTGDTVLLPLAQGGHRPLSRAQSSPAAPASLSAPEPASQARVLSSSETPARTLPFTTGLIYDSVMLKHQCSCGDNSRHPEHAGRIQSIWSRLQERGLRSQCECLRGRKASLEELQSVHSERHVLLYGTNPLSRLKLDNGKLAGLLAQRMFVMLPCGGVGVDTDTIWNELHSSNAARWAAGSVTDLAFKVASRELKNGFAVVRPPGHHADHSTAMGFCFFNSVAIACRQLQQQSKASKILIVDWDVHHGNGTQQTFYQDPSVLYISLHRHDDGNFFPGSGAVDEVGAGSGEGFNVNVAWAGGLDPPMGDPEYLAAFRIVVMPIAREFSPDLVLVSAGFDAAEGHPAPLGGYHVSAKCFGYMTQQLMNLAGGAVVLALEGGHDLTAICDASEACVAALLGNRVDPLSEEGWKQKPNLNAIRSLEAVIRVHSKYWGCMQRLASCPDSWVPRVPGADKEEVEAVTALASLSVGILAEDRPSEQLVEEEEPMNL", "experiment": "HDAC enzyme inhibitory activity, FRET method", "type": "biochemical", "conditions": "Table 6; read-out: IC50 HDAC subtype 7", "quoted_text": "as §1, §2"}, "[4]": {"tested_on": "Mouse colon cancer MC38 cells", "conditions": "MC-38", "quoted_text": "Female C57BL6N mice (aged 6 weeks, 18-22 g) were provided by Vital River Laboratory Animal Technology Co., Ltd. (China) and used one week after quarantine and acclimation. All animals were kept in a room at 23±2 °C with a relative humidity of 50±5%, artificial lighting was provided from 08:00 to 20:00 every day, and the air was exchanged 13-18 times per hour.\nMouse colon cancer MC38 cells were cultured conventionally in 1640 medium containing 10% fetal bovine serum in an incubator at 37 °C with 5% CO2. After being subcultured, the cells were collected when they reached the desired amount. The C57BL6N mice were subcutaneously injected with 2 × 10^6 MC38 cells on the right side to form tumors. After the tumors grew to about 100 mm^3, the animals were randomly grouped for administration. Tumor volumes were measured with a caliper on day 3, day 7, day 10, day 14, day 17, and day 21 after the administration. The ability of the compounds to inhibit tumor growth was evaluated according to the tumor growth inhibition rate (TGI) = 1 - (tumor volume on day 28 in treatment group - tumor volume on day 1 in treatment group)/(tumor volume on day 28 in control group - tumor volume on day 1 in control group). The toxicity of the compounds was evaluated according to the body weight and state of the mice.\nThe groups were as follows: 1) solvent control group; 2) PD-1+Reg group; 3) Compound 1 group; 4) Reference Compound group; 5) compound 1 (10mg/kg) and PD-1+Reg Combination group; 6) compound 1 (30mg/kg) and PD-1+Reg Combination group; 7) compound 1 (90mg/kg) and PD-1+Reg Combination group; 8) Reference Compound (10mg/kg) and PD-1+Reg Combination group; 9) Reference Compound (30mg/kg) and PD-1+Reg Combination group; 10) Reference Compound (90mg/kg) and PD-1+Reg Combination group, with 6 mice per group.\nReg represents Regorafenib PD-1 represents an anti-PD-1 antibody; IV represents administration via intravenous injection; PO represents oral administration; QD represents once-daily administration; QW represents once-weekly administration; CR represents complete remission (complete disappearance of the tumor after the dosing cycle is completed); PR represents partial response (tumor volume reduction exceeding 30% relative to the initial volume upon completion of the administration cycle); SD represents stable disease (tumor volume reduction or growth not exceeding 30% relative to the initial volume upon completion of the administration cycle); Died represents mouse died before the dosing cycle is completed; Administration period* is once daily (QD) for 10 consecutive days, followed by a 16-day off-treatment period; the once-weekly (QW) regimen is administered only on Day 1 and Day 8."}, "[5]": {"biological_target": "HDAC4 (Homo sapiens, UniProt P56524)", "sequence (P56524 whole entry, species assumed)": "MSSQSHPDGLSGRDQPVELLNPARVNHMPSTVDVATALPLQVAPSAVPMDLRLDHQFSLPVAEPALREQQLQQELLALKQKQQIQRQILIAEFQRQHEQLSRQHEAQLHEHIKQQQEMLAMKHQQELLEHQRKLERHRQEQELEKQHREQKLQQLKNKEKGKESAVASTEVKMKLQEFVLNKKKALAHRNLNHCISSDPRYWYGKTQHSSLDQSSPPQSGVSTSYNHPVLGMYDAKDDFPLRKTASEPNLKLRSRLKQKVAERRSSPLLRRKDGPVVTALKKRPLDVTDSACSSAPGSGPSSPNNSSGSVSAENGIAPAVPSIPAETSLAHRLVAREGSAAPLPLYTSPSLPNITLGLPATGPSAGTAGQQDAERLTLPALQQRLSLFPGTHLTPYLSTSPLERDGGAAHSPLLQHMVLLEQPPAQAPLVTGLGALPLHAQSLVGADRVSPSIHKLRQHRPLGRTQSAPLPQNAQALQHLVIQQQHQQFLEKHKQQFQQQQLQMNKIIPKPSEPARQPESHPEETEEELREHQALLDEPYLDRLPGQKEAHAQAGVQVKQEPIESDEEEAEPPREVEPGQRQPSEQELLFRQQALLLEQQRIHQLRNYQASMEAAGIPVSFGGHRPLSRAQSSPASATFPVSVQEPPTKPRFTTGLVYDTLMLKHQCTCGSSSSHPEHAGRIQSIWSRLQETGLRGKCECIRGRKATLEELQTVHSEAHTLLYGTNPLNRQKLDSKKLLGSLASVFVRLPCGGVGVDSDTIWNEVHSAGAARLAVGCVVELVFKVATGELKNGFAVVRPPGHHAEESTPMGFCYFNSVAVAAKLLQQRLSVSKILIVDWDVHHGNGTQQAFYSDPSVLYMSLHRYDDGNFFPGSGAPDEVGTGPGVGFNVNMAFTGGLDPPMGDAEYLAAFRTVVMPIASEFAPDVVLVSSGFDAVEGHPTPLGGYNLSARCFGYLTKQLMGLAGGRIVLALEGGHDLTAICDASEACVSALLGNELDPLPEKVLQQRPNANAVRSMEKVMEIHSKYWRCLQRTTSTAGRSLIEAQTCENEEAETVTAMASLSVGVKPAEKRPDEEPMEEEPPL", "experiment": "HDAC enzyme inhibitory activity, FRET method", "type": "biochemical", "conditions": "Table 6; read-out: IC50 HDAC subtype 4", "quoted_text": "as §1, §2"}, "[6]": {"conditions": "Injection (1 mg/kg), intravenous"}}, "note": "Like-named read-outs stand apart in the source and are kept apart here.", "data": [{"smiles": "CS(C)(=O)=Nc1ccc(C(=O)Nc2cc(-c3ccc(F)cc3)ccc2N)cc1", "note": "[Compound 1, N-(4-Amino-4'-fluoro-[1,1'-biphenyl]-3-yl)-4-((dimethyl(oxo)-1^λ-6-sulfaneylidene)amino)benzamide]", "values": [{"measurement": "IC50", "setting": "[1]; Table 4, read-out: IC50 HDAC1", "result": "< 500", "unit": "nM"}, {"measurement": "IC50", "setting": "[1]; Table 5, read-out: IC50 HDAC1", "result": "< 30", "unit": "nM"}, {"measurement": "IC50", "setting": "[1]; Table 6, read-out: IC50 HDAC subtype 1", "result": 26.5, "unit": "nM"}, {"measurement": "AUC(0-t)", "setting": "[2]; [6]", "result": 2280, "unit": "ng·h/mL"}, {"measurement": "clearance", "setting": "[2]; [6]", "result": 7.29, "unit": "mL/min/kg"}, {"measurement": "half-life", "setting": "[2]; [6]", "result": 3.01, "unit": "h"}, {"measurement": "Vd", "setting": "[2]; Injection (1 mg/kg), intravenous, read-out: Vdss", "result": 1.68, "unit": "L/kg"}, {"measurement": "AUC(0-t)", "setting": "[2]; Oral administration (10 mg/kg)", "result": 15400, "unit": "ng·h/mL"}, {"measurement": "Cmax", "setting": "[2]; Oral administration (10 mg/kg)", "result": 1370, "unit": "ng/mL"}, {"measurement": "Tmax", "setting": "[2]; Oral administration (10 mg/kg)", "result": 2, "unit": "h"}, {"measurement": "bioavailability", "setting": "[2]; Oral administration (10 mg/kg)", "result": 67.4, "unit": "%"}, {"measurement": "half-life", "setting": "[2]; Oral administration (10 mg/kg)", "result": 2.73, "unit": "h"}, {"measurement": "IC50", "setting": "[3]", "result": "> 30000", "unit": "nM"}, {"measurement": "Change in body weight(%)", "setting": "[4]; monotherapy 90 mg/kg QD PO", "result": "11.08 ± 1.08", "unit": "%"}, {"measurement": "Tumor response, number of mice (CR/PR/SD)", "setting": "[4]; monotherapy 90 mg/kg QD PO, CR complete remission, PR partial response, SD stable disease, 6 mice per group", "result": 5, "unit": "CR"}, {"measurement": "TGI(%)", "setting": "[4]; monotherapy 90 mg/kg, QD for 10 consecutive days, PO", "result": 100.54, "unit": "%"}, {"measurement": "complete tumor regression, % of mice", "setting": "[4]; monotherapy group (5/6)", "result": 83.3, "unit": "%"}, {"measurement": "IC50", "setting": "[5]", "result": "> 30000", "unit": "nM"}]}]}
